US11041000B2, “Peptide inhibitors of interleukin-23 receptor and their use to treat inflammatory diseases” (priority 2019, dated 2021)
Numbered stars: 1 amine (or outer) side, 2 acyl side, 3 side chain; on linkers, the order of the positions; unused ones are H or OH. Bridge positions count the residues as written; N and C are the ends. Square brackets hold non-standard residues; d marks the D form. Peptide text beside a SMILES is read from it. Trp(7-Me) = Cc1cccc2c(C[C@H](N)C(=O)O)c[nH]c12; Abu(4-yl) = O=C([C@H](CC[*:3])N[*:1])[*:2]; 2Nal = N[C@@H](Cc1ccc2ccccc2c1)C(=O)O; AEF = NCCOc1ccc(C[C@H](N)C(=O)O)cc1; Cit = NC(=O)NCCC[C@H](N)C(=O)O; Pen = CC(C)(S)[C@H](N)C(=O)O; αMeK = C[C@](N)(CCCCN)C(=O)O; Dab = NCC[C@H](N)C(=O)O; Aib = CC(C)(N)C(=O)O; Sar = CNCC(=O)O

What was measured:
Assay type in all cases: in vitro ADME
[1] = Stability in rat plasma; settings: both sexes, SD rat plasma, EDTA, 37° C., read-out: t½: Rat Plasma EDTA (converted)
[2] = Stability in simulated intestinal fluid (SIF); settings: simulated intestinal fluid with pancreatin, pH 6.8, 37° C., matrix is 100 fold dilution of standard SIF concentration; for half-life at 20 μM: read-out: SIF t½ (converted); for SIF t½: 20 μM
[3] = Stability in cynomolgus monkey fecal homogenate; settings: 20% fecal homogenate (supernatant), pH 6.8, 20% cynomolgus monkey fecal homogenate, anaerobic, 37° C., read-out: t½: Monkey Feces anaerobic (converted)
Experimental: (§1) Centrifuged the homogenate at 2800×g for 15 min. The supernatant is taken out and used for incubations. […] The final test compound concentration was 20 μM.

[4] = Stability in human fecal homogenate; settings: 20% fecal homogenate (supernatant), pH 6.8, 20% human fecal homogenate, anaerobic, 37° C., read-out: t½: Human Feces anaerobic (converted)
Experimental: as §1

SMILES	half-life at 20 μM [1] [h]	half-life at 20 μM [2] [h]	half-life at 20 μM [3] [h]	half-life at 20 μM [4] [h]	SIF t½ [2] [h]
CC(=O)NCCCC[C@@H]1NC(=O)[C@H](Cc2c[nH]c3c(C)cccc23)NC(=O)[C@H]([C@@H](C)O)NC(=O)[C@@H]2CCCN2C(=O)[C@@H](NC(C)=O)C(C)(C)SSC(C)(C)[C@@H](C(=O)N[C@@H](Cc2ccc(OCCN)cc2)C(=O)N[C@@H](Cc2ccc3ccccc3c2)C(=O)N[C@@](C)(CCCCN)C(=O)N[C@@H](CCCCNC(C)=O)C(=O)N[C@@H](CC(N)=O)C(=O)N[C@H](CC(C)C)C(N)=O)NC1=O [compound 333] (Ac-[Pen]PT[Trp(7-Me)]K(Ac)[Pen][AEF][2Nal][αMeK]K(Ac)N[dL]-NH2; disulfide 1-6)	> 24	22	24	> 24	–
CC(=O)NCCCC[C@H](NC(=O)[C@](C)(CCCCN)NC(=O)[C@H](Cc1ccc2ccccc2c1)NC(=O)[C@H](Cc1ccc(OCCN)cc1)NC(=O)[C@H]1NC(=O)[C@H](CCCCNC(=O)[C@H](C)N)NC(=O)[C@H](Cc2c[nH]c3c(C)cccc23)NC(=O)[C@H]([C@@H](C)O)NC(=O)[C@H](CC(N)=O)NC(=O)[C@@H](NC(C)=O)C(C)(C)SSC1(C)C)C(=O)N[C@@H](CC(N)=O)C(=O)N[C@H](CC(C)C)C(N)=O [compound 314]	> 24	–	> 24	> 24	24
COc1cccc2c(C[C@@H]3NC(=O)[C@H]([C@@H](C)O)NC(=O)[C@H](CC(N)=O)NC(=O)[C@@H](NC(C)=O)C(C)(C)SSC(C)(C)[C@@H](C(=O)N[C@@H](Cc4ccc(OCCN)cc4)C(=O)N[C@@H](Cc4ccc5ccccc5c4)C(=O)N[C@@](C)(CCCCN)C(=O)N[C@@H](CCCCNC(C)=O)C(=O)N[C@@H](CC(N)=O)C(=O)N[C@H](CCCCN)C(N)=O)NC(=O)[C@H](CCCCNC(C)=O)NC3=O)c[nH]c12 [compound 299]	> 24	–	> 24	> 24	24
CC(=O)NCCCC[C@H](NC(=O)[C@](C)(CCCCN)NC(=O)[C@H](Cc1ccc2ccccc2c1)NC(=O)[C@H](Cc1ccc(OCCN)cc1)NC(=O)[C@H]1NC(=O)[C@H](CCCCNC(=O)CC(C)C)NC(=O)[C@H](Cc2c[nH]c3c(C)cccc23)NC(=O)[C@H]([C@@H](C)O)NC(=O)[C@H](CC(N)=O)NC(=O)[C@@H](NC(C)=O)C(C)(C)SSC1(C)C)C(=O)N[C@@H](CC(N)=O)C(=O)N[C@H](CC(C)C)C(N)=O [compound 315]	> 24	–	> 24	> 24	24
CC(=O)NCCCC[C@@H]1NC(=O)[C@H](Cc2c[nH]c3c(C)cccc23)NC(=O)[C@H]([C@@H](C)O)NC(=O)[C@H](CCNC(C)=O)NC(=O)[C@@H](NC(C)=O)C(C)(C)SSC(C)(C)[C@@H](C(=O)N[C@@H](Cc2ccc(OCCN)cc2)C(=O)N[C@@H](Cc2ccc3ccccc3c2)C(=O)N[C@@](C)(CCCCN)C(=O)N[C@@H](CCCCNC(C)=O)C(=O)N[C@@H](CC(N)=O)C(=O)N[C@H](CC(C)C)C(N)=O)NC1=O [compound 335] (Ac-[Pen][Dab](Ac)T[Trp(7-Me)]K(Ac)[Pen][AEF][2Nal][αMeK]K(Ac)N[dL]-NH2; disulfide 1-6)	> 24	20	> 24	> 24	–
CC(=O)NCCCC[C@@H]1NC(=O)[C@H](Cc2c[nH]c3c(C)cccc23)NC(=O)[C@H]([C@@H](C)O)NC(=O)[C@H](CCC(N)=O)NC(=O)[C@@H](NC(=O)[C@@H](CCCNC(=N)N)NC(C)=O)CCSC[C@@H](C(=O)N[C@@H](Cc2ccc(OCCN)cc2)C(=O)N[C@@H](Cc2ccc3ccccc3c2)C(=O)N[C@@](C)(CCCCN)C(=O)N[C@@H](CCCCNC(C)=O)C(=O)N[C@@H](CC(N)=O)C(=O)N[C@H](CCCCN)C(N)=O)NC1=O [compound 324] (Ac-[dR][Abu(4-yl)]QT[Trp(7-Me)]K(Ac)C[AEF][2Nal][αMeK]K(Ac)N[dK]-NH2; thioether 2-7)	> 24	13	13	> 24	–

The next lines start with results.

half-life at 20 μM [1] [h]	half-life at 20 μM [2] [h]	half-life at 20 μM [3] [h]	half-life at 20 μM [4] [h]	SMILES	SIF t½ [2] [h]
> 24	15	> 24	> 24	CC(=O)NCCCC[C@@H]1NC(=O)[C@H](Cc2c[nH]c3c(C)cccc23)NC(=O)[C@H]([C@@H](C)O)NC(=O)[C@H](CCCNC(N)=O)NC(=O)[C@@H](NC(C)=O)C(C)(C)SSC(C)(C)[C@@H](C(=O)N[C@@H](Cc2ccc(OCCN)cc2)C(=O)N[C@@H](Cc2ccc3ccccc3c2)C(=O)N[C@@](C)(CCCCN)C(=O)N[C@@H](CCCCNC(C)=O)C(=O)N[C@@H](CC(N)=O)C(=O)N[C@H](CC(C)C)C(N)=O)NC1=O [compound 331] (Ac-[Pen][Cit]T[Trp(7-Me)]K(Ac)[Pen][AEF][2Nal][αMeK]K(Ac)N[dL]-NH2; disulfide 1-6)	–
> 24	10	> 24	> 24	CC(=O)NCCCC[C@@H]1NC(=O)[C@H](Cc2c[nH]c3c(C)cccc23)NC(=O)[C@H]([C@@H](C)O)NC(=O)[C@H](CC(N)=O)NC(=O)[C@@H](NC(C)=O)C(C)(C)SSC(C)(C)[C@@H](C(=O)N[C@@H](Cc2ccc(OCCN)cc2)C(=O)N[C@@H](Cc2ccc3ccccc3c2)C(=O)N[C@@](C)(CCCCN)C(=O)N[C@@H](CCCCNC(=O)CC(C)C)C(=O)N[C@@H](CC(N)=O)C(=O)N[C@H](CC(C)C)C(N)=O)NC1=O [compound 356]	–
> 24	16	15	12	CC(=O)NCCCC[C@H](NC(=O)[C@](C)(CCCCN)NC(=O)[C@H](Cc1ccc2ccccc2c1)NC(=O)[C@H](Cc1ccc(OCCN)cc1)NC(=O)[C@H]1NC(=O)[C@H](CCCNC(N)=O)NC(=O)[C@H](Cc2c[nH]c3c(C)cccc23)NC(=O)[C@H]([C@@H](C)O)NC(=O)[C@H](CC(N)=O)NC(=O)[C@@H](NC(C)=O)C(C)(C)SSC1(C)C)C(=O)N[C@@H](CC(N)=O)C(=O)NC(C)(C)C(=O)N[C@@H](C)C(N)=O [compound 342] (Ac-[Pen]NT[Trp(7-Me)][Cit][Pen][AEF][2Nal][αMeK]K(Ac)N[Aib]A-NH2; disulfide 1-6)	–
> 24	–	> 24	> 24	CCCCC(=O)NCCCC[C@H](NC(=O)[C@](C)(CCCCN)NC(=O)[C@H](Cc1ccc2ccccc2c1)NC(=O)[C@H](Cc1ccc(OCCN)cc1)NC(=O)[C@H]1NC(=O)[C@H](CCCCNC(C)=O)NC(=O)[C@H](Cc2c[nH]c3c(C)cccc23)NC(=O)[C@H]([C@@H](C)O)NC(=O)[C@H](CC(N)=O)NC(=O)[C@@H](NC(C)=O)C(C)(C)SSC1(C)C)C(=O)N[C@@H](CC(N)=O)C(=O)N[C@H](CC(C)C)C(N)=O [compound 361]	24
> 24	–	18	> 24	CC(=O)NCCCC[C@H](NC(=O)[C@](C)(CCCCN)NC(=O)[C@H](Cc1ccc2ccccc2c1)NC(=O)[C@H](Cc1ccc(OCCN)cc1)NC(=O)[C@H]1NC(=O)[C@H](CCCNC(N)=O)NC(=O)[C@H](Cc2c[nH]c3c(C)cccc23)NC(=O)[C@H]([C@@H](C)O)NC(=O)[C@H](CC(N)=O)NC(=O)[C@@H](NC(C)=O)C(C)(C)SSC1(C)C)C(=O)N[C@@H](CC(N)=O)C(=O)N(C)CC(N)=O [compound 339] (Ac-[Pen]NT[Trp(7-Me)][Cit][Pen][AEF][2Nal][αMeK]K(Ac)N[Sar]-NH2; disulfide 1-6)	24
> 24	17	> 24	> 24	CC(=O)NCCCC[C@H](NC(=O)[C@](C)(CCCCN)NC(=O)[C@H](Cc1ccc2ccccc2c1)NC(=O)[C@H](Cc1ccc(OCCN)cc1)NC(=O)[C@H]1NC(=O)[C@H](CCCNC(N)=O)NC(=O)[C@H](Cc2c[nH]c3c(C)cccc23)NC(=O)[C@H]([C@@H](C)O)NC(=O)[C@H](CC(N)=O)NC(=O)[C@@H](NC(C)=O)C(C)(C)SSC1(C)C)C(=O)N[C@@H](CC(N)=O)C(=O)NC(C)(C)C(=O)NCC(N)=O [compound 341] (Ac-[Pen]NT[Trp(7-Me)][Cit][Pen][AEF][2Nal][αMeK]K(Ac)N[Aib]G-NH2; disulfide 1-6)	–
